Test results reported in patent publication US10550165B2, “Peptide for inducing regeneration of tissue and use thereof” (STEMRIM INC., priority 2011, dated 2020).

Columns and labels:
[1] = system: mouse bone marrow mesenchymal stem cell line (MSC-1 cells), PDGFRα-positive; assay: Migration assay (Boyden / 48-well chemotaxis chamber) on bone marrow mesenchymal stem cell line MSC-1; format: cell-based
In short: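 Mouse MSC-1 cells (3×10^6 cells/ml in D-MEM with 10% FBS) loaded in the upper wells of a 48-well Boyden chamber with 8 μm polycarbonate membrane; mouse HMGB1 peptides or HEK293-made HMGB1 in lower wells at 100 μg/ml, 5 μM or 10 μM; PBS as negative control. After 4 h at 37° C, migrated cells were Diff-Quik stained.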

[2] = system: skin flap made on the back of a rat; assay: Skin flap (skin damage) model on the back of rats; format: in vivo; conditions: for area of wound section (necrosed section) in the skin flap: FIG. 25
Method: Experimental animals used were SD rats (male, eight weeks old). After sufficiently deep anesthesia by isoflurane inhalation, a rectangular skin incision of 3 cm width×7 cm length was made on the back. The cephalic side was left uncut, and the skin was thoroughly detached from the subcutaneous tissues. The three incised sides were sutured to the surrounding skin using #4 silk suture, and protected with Tegaderm (3M) to prevent bacterial infection.
The full-length mouse HMGB1 (100 μg/administration/day) produced in HEK293 and chemically synthesized HMGB1 peptide (amino acids 1 to 44; 50 μg/administration/day) were diluted to 200 μl with phosphate buffer and administered to rats via the caudal vein. The first administration was performed 6 hours after the surgery, and then the agents were administered every 24 hours a total of five times. Phosphate-buffered physiological saline was administered as a negative control. Tegaderm was removed after one week, and the wound region was observed weekly to measure the areas of necrosis and ulceration.
Experimental animals used were 15 SD rats (male, eight weeks old) per group. After sufficient anesthesia by isoflurane inhalation, a rectangular skin incision of 3 cm width×7 cm length was made on the back. The cephalic side was left uncut, and the skin was thoroughly detached from the subcutaneous tissues. The incised three sides were sutured to the surrounding skin using #4 silk suture, and protected with Tegaderm (3M) to prevent bacterial infection.
Chemically synthesized HMGB1 peptide (amino acids 1-44; 50 μg/administration/day) or HMGB1 peptide (amino acids 17-25; 50 μg/administration/day) was diluted to 200 μl with phosphate buffer and administered to the rats with experimental wound. The first administration was performed 6 hours after the surgery, and then the agents were administered every 24 hours a total of five times. Phosphate-buffered physiological saline was administered as a negative control. Tegaderm was removed after one week, and the wound was observed two weeks after the wound production. Uncured areas (ulceration and necrosis) were measured.

[3] = 2 μM, area of migrated cells by image analysis, FIG. 10

Q: Which results are given for “synthetic peptide (1-44): chemically synthesized HMGB1 peptide, amino acids 1 to 44, mouse HMGB1 sequence (MGKGDPKKPRGKMSSYAFFVQTCREEHKKKHPDASVNFSEFSKK; UniProt P63158 1-44, looked up, fragment)”?
A: migration-promoting activity relative to the full-length HMGB1, compared per equal mass [1, 3]: 2.86 times; migration-promoting activity relative to the full-length HMGB1, compared per equal mole [1, 3]: 0.57 times; migration-promoting activity ([1]; synthetic peptides, 100 μg/ml, positive control 1-215(HEK), FIG. 7): activity comparable to or higher than that of the positive control; area of wound section (necrosed section) in the skin flap ([2]; after four weeks and later, versus the other two groups): a further shrinking effect was observed; area of wound section (necrosed section) in the skin flap ([2]; one to three weeks after the skin flap was made, versus negative control): effect of shrinking the wound section was confirmed; rats in which skin necrosis developed ([2]; one week after surgery, caudal vein, five administrations, full-length 100 μg, peptide 50 μg/administration/day, negative control four of five): one of five rats; rats with severe skin contracture ([2]; seven weeks after surgery, same regimen, negative control four of five, FIG. 24): two of five rats; ratio of the uncured area relative to the area of the whole skin flap, average ([2]; two weeks after skin flap production, 50 μg/administration/day, five administrations, 15 SD rats per group, FIG. 26): 14.1%
